Measured values reported in US4198507A (Hoffmann-La Roche Inc., priority 1978, dated 1980).

Legend:
Mice = assay: Acute toxicity, mice p.o. (72 hours); type: in vivo
Protocol: 1. Acute Toxicity LC50 Mice p.o. (72 hours)

[1] = prior art; cited from earlier work
gastrointestinal tract = settings: compared with the parent xanthines; prior art; cited from earlier work
[2] = prior art; cited from earlier work; remark: listed apart in the source

Molecule | Acute Toxicity LC50 (Mice) | water solubility (in words) [1] | other results
O=C(O)c1ccccc1O [Magnesium Sailicylate, magnesium salicylate] | 1200 ± 53 mg |  | 
Cn1c(=O)c2[nH]cnc2n(C)c1=O [Theophylline anhydrous, 1, 3, dimethyl xanthine] | 460 ± 35 mg |  | 
Cn1cnc2c1c(=O)[nH]c(=O)n2C [theobromine sodium salicylate] |  | soluble | 
CC(=O)[O-].Cn1c(=O)c2[nH]cnc2n(C)c1=O.[Na+] [theophylline sodium acetate] |  | soluble in water | 
theophylline calcium salicylate |  |  | tolerance in the gastrointestinal tract (gastrointestinal tract): better tolerated; reaction in aqueous solutions or suspensions [2]: alkaline reactions
